SMILES strings stand for the structures. Active and inactive are the calls of the source. The calls are words filed in the database; no cut-off is given here.

For the first assay, the system named is Trypanosoma brucei brucei. In words: Antitrypanosomal activity against TbAT1 knock out Trypanosoma brucei brucei mutant after 48 hrs by alamar blue assay. The format is functional, organism-based.
Settings: not given
On the technique in general: The colour change of resazurin is a common sign of viable cells or microbes.
As usually defined, the IC50 is the concentration that gives 50% inhibition. Low readings indicate greater potency, high ones weaker potency. With `CC(C)(C)OC(=O)NCCCC(N)(C(=O)NCCCNc1nc(N)nc(N)n1)C(F)F` (stereo not drawn), 105 µM corresponded to half-maximal inhibition (IC50).
Consider `NCCCNc1nc(N)nc(N)n1`, for which the half-maximal inhibitory concentration (IC50) was > 100 µM.
The compound `CC1COc2c(N3CCN(C)CC3)c(F)cc3c(=O)c(C(=O)OCCCNc4nc(N)nc(N)n4)cn1c23` (stereo not drawn) displayed a half-maximal inhibitory concentration (IC50) of 35.7 µM. In other words, the double-digit micromolar range.
Take `CC1COc2c(N3CCN(C)CC3)c(F)cc3c(=O)c(C(=O)NCCCNc4nc(N)nc(N)n4)cn1c23` (stereo not drawn): the IC50 is > 100 µM.
On the same count and under the same terms, as for `Nc1nc(N)nc(NCCCO)n1`, the figure is > 100 µM; as for `C[C@H]1[C@H](OC(=O)CCC(=O)O)O[C@@H]2O[C@@]3(C)CC[C@H]4[C@H](C)CC[C@@H]1[C@@]24OO3` [ARTESUNATE], 15 µM.
As for `C[C@H]1[C@H](OC(=O)CCC(=O)NCCCNc2nc(N)nc(N)n2)O[C@@H]2O[C@@]3(C)CC[C@H]4[C@H](C)CC[C@@H]1[C@@]24OO3`, half-maximal inhibition (IC50) was put at 2.9 µM.
As to `NCCCC(N)(C(=O)OCCCNc1nc(N)nc(N)n1)C(F)F` (stereo not drawn), the IC50 was > 100 µM.
For the compound `NCCCC(N)(C(=O)NCCCNc1nc(N)nc(N)n1)C(F)F` (stereo not drawn), the IC50 is > 100 µM.
`C[C@H]1[C@H](OC(=O)CCC(=O)OCCCNc2nc(N)nc(N)n2)O[C@@H]2O[C@@]3(C)CC[C@H]4[C@H](C)CC[C@@H]1[C@@]24OO3`: the IC50 was 5 µM. In other words, the single-digit micromolar range.
`CC(C)(C)OC(=O)NCCCC(N)(C(=O)OCCCNc1nc(N)nc(N)n1)C(F)F` (stereo not drawn) gave a half-inhibitory concentration (IC50) of 400 µM. Against the preceding compound, the IC50 is about 80-fold higher.
`CCn1cc(C(=O)O)c(=O)c2cc(F)c(N3CCN(c4nc(N)nc(N)n4)CC3)cc21` gave an IC50 of 32.7 µM.

For the next assay, the system named is Trypanosoma brucei brucei. In words: Resistance factor, ratio of IC50 for TbAT1 knock out and pentamidine-resistant Trypanosoma brucei brucei B48 mutant to IC50 for wild type Trypanosoma brucei brucei s427.
Settings: not given
It counts as functional.
Turning to `CC1COc2c(N3CCN(C)CC3)c(F)cc3c(=O)c(C(=O)OCCCNc4nc(N)nc(N)n4)cn1c23` (stereo not drawn), the “Ratio IC50” value came to 1.
In the case of `C[C@H]1[C@H](OC(=O)CCC(=O)O)O[C@@H]2O[C@@]3(C)CC[C@H]4[C@H](C)CC[C@@H]1[C@@]24OO3` [ARTESUNATE], the “Ratio IC50” value is reported as 2.1.
As to `C[C@H]1[C@H](OC(=O)CCC(=O)NCCCNc2nc(N)nc(N)n2)O[C@@H]2O[C@@]3(C)CC[C@H]4[C@H](C)CC[C@@H]1[C@@]24OO3`, the “Ratio IC50” value was 2.7.
Still for that read-out and setting: as for `C[C@H]1[C@H](OC(=O)CCC(=O)OCCCNc2nc(N)nc(N)n2)O[C@@H]2O[C@@]3(C)CC[C@H]4[C@H](C)CC[C@@H]1[C@@]24OO3`, the figure is 3; as for `CC(C)(C)OC(=O)NCCCC(N)(C(=O)OCCCNc1nc(N)nc(N)n1)C(F)F` (stereo not drawn), 2.3.
Still for that read-out and setting: as for `CCn1cc(C(=O)O)c(=O)c2cc(F)c(N3CCN(c4nc(N)nc(N)n4)CC3)cc21`, the figure is 5.3.

The test system of another assay is Trypanosoma brucei brucei. In words: Antitrypanosomal activity against TbAT1 knock out and pentamidine-resistant Trypanosoma brucei brucei B48 mutant after 48 hrs by alamar blue assay.
Settings: not given
It counts as functional, organism-based.
Take `CC(C)(C)OC(=O)NCCCC(N)(C(=O)NCCCNc1nc(N)nc(N)n1)C(F)F` (stereo not drawn): the half-maximal inhibitory concentration (IC50) is > 100 µM.
`NCCCNc1nc(N)nc(N)n1`: the IC50 is > 100 µM.
On the same count and under the same terms, the value for `CC1COc2c(N3CCN(C)CC3)c(F)cc3c(=O)c(C(=O)OCCCNc4nc(N)nc(N)n4)cn1c23` (stereo not drawn) was 31.5 µM; that for `CC1COc2c(N3CCN(C)CC3)c(F)cc3c(=O)c(C(=O)NCCCNc4nc(N)nc(N)n4)cn1c23` (stereo not drawn) was > 100 µM.
Same read-out and setting: the value for `Nc1nc(N)nc(NCCCO)n1` was > 100 µM.
`C[C@H]1[C@H](OC(=O)CCC(=O)O)O[C@@H]2O[C@@]3(C)CC[C@H]4[C@H](C)CC[C@@H]1[C@@]24OO3` [ARTESUNATE]: half-maximal inhibition (IC50) required 27.5 µM. This counts as double-digit micromolar.
Still for that read-out and setting: the value for `C[C@H]1[C@H](OC(=O)CCC(=O)NCCCNc2nc(N)nc(N)n2)O[C@@H]2O[C@@]3(C)CC[C@H]4[C@H](C)CC[C@@H]1[C@@]24OO3` was 7.1 µM; that for `NCCCC(N)(C(=O)OCCCNc1nc(N)nc(N)n1)C(F)F` (stereo not drawn) was > 100 µM; that for `NCCCC(N)(C(=O)NCCCNc1nc(N)nc(N)n1)C(F)F` (stereo not drawn) was > 100 µM.
The same measure, in the same setting: the value for `C[C@H]1[C@H](OC(=O)CCC(=O)OCCCNc2nc(N)nc(N)n2)O[C@@H]2O[C@@]3(C)CC[C@H]4[C@H](C)CC[C@@H]1[C@@]24OO3` was 12.1 µM; that for `CC(C)(C)OC(=O)NCCCC(N)(C(=O)OCCCNc1nc(N)nc(N)n1)C(F)F` (stereo not drawn) was 888 µM.
The compound `CCn1cc(C(=O)O)c(=O)c2cc(F)c(N3CCN(c4nc(N)nc(N)n4)CC3)cc21` came in with a half-inhibitory concentration (IC50) of 27.7 µM. Against the preceding compound, the IC50 is about 32-fold lower.

Another assay relates to Trypanosoma brucei brucei. In words: Antitrypanosomal activity against wild type Trypanosoma brucei brucei s427 after 48 hrs by alamar blue assay. The format is functional, organism-based. Conditions: s427, 48 h.
As for `CC1COc2c(N3CCN(C)CC3)c(F)cc3c(=O)c(C(=O)O)cn1c23` (stereo not drawn) [OFLOXACIN], the IC50 is > 100 µM.
`O=C(O)c1cn(C2CC2)c2cc(N3CCNCC3)c(F)cc2c1=O` [CIPROFLOXACIN] displayed an IC50 of 17.2 µM.
For `CC(C)(C)OC(=O)NCCCC(N)(C(=O)NCCCNc1nc(N)nc(N)n1)C(F)F` (stereo not drawn), it took 355 µM to reach half-maximal inhibition (IC50). This IC50 lies about 21-fold higher than the previous one.
As to `NCCCNc1nc(N)nc(N)n1`, the IC50 is > 100 µM.
The compound `CC1COc2c(N3CCN(C)CC3)c(F)cc3c(=O)c(C(=O)OCCCNc4nc(N)nc(N)n4)cn1c23` (stereo not drawn) came in with an IC50 of 31.6 µM. This lies in the double-digit micromolar range.
`CCn1cc(C(=O)O)c(=O)c2cc(F)c(N3CCNC(C)C3)c(F)c21` (stereo not drawn) [LOMEFLOXACIN] returned a half-maximal inhibitory concentration (IC50) of 197 µM.
`CC1COc2c(N3CCN(C)CC3)c(F)cc3c(=O)c(C(=O)NCCCNc4nc(N)nc(N)n4)cn1c23` (stereo not drawn): 112 µM corresponded to half-maximal inhibition (IC50).
For `Nc1nc(N)nc(NCCCO)n1`, the half-inhibitory concentration (IC50) is > 100 µM.
The compound `C[C@H]1[C@H](OC(=O)CCC(=O)O)O[C@@H]2O[C@@]3(C)CC[C@H]4[C@H](C)CC[C@@H]1[C@@]24OO3` [ARTESUNATE] gave an IC50 of 12.8 µM.
`Nc1nc(N)nc(N2CCN(c3cc4c(cc3F)c(=O)c(C(=O)O)cn4C3CC3)CC2)n1` came in with a half-maximal inhibitory concentration (IC50) of 4940 µM.
Consider `CCn1cc(C(=O)O)c(=O)c2cc(F)c(N3CCNCC3)cc21` [NORFLOXACIN], for which the half-maximal inhibitory concentration (IC50) came out at 39.9 µM.
Regarding `C[C@@H]1CN(c2c(F)c(N)c3c(=O)c(C(=O)O)cn(C4CC4)c3c2F)C[C@H](C)N1` [SPARFLOXACIN], the IC50 was 18.5 µM.
With `Nc1nc(N)nc(NCCCC(N)(C(=O)O)C(F)F)n1` (stereo not drawn), the IC50 is > 100 µM.
As for `C[C@H]1[C@H](OC(=O)CCC(=O)NCCCNc2nc(N)nc(N)n2)O[C@@H]2O[C@@]3(C)CC[C@H]4[C@H](C)CC[C@@H]1[C@@]24OO3`, the IC50 was determined as 2.6 µM.
For the compound `NCCCC(N)(C(=O)OCCCNc1nc(N)nc(N)n1)C(F)F` (stereo not drawn), the IC50 is > 100 µM.
`NCCCC(N)(C(=O)NCCCNc1nc(N)nc(N)n1)C(F)F` (stereo not drawn): the half-maximal inhibitory concentration (IC50) is > 100 µM.
The same measure, in the same setting: the value for `C[C@H]1[C@H](OC(=O)CCC(=O)OCCCNc2nc(N)nc(N)n2)O[C@@H]2O[C@@]3(C)CC[C@H]4[C@H](C)CC[C@@H]1[C@@]24OO3` was 4 µM.
Same read-out and setting: as for `CC(C)(C)OC(=O)NCCCC(N)(C(=O)OCCCNc1nc(N)nc(N)n1)C(F)F` (stereo not drawn), the figure is 382 µM.
`CCn1cc(C(=O)O)c(=O)c2cc(F)c(N3CCN(c4nc(N)nc(N)n4)CC3)cc21` returned a 50% inhibitory concentration (IC50) of 5.2 µM. Against the preceding compound, the IC50 is about 73-fold lower.

The subject of a further assay is Trypanosoma brucei brucei. In words: Resistance factor, ratio of IC50 for TbAT1 knock out Trypanosoma brucei brucei mutant to IC50 for wild type Trypanosoma brucei brucei s427. It counts as functional.
Settings: not given
For the compound `CC(C)(C)OC(=O)NCCCC(N)(C(=O)NCCCNc1nc(N)nc(N)n1)C(F)F` (stereo not drawn), the “Ratio IC50” value worked out at 0.3.
As to `CC1COc2c(N3CCN(C)CC3)c(F)cc3c(=O)c(C(=O)OCCCNc4nc(N)nc(N)n4)cn1c23` (stereo not drawn), the “Ratio IC50” value is recorded as 1.1.
For `C[C@H]1[C@H](OC(=O)CCC(=O)O)O[C@@H]2O[C@@]3(C)CC[C@H]4[C@H](C)CC[C@@H]1[C@@]24OO3` [ARTESUNATE], the “Ratio IC50” value is reported as 1.2.
For `C[C@H]1[C@H](OC(=O)CCC(=O)NCCCNc2nc(N)nc(N)n2)O[C@@H]2O[C@@]3(C)CC[C@H]4[C@H](C)CC[C@@H]1[C@@]24OO3`, the “Ratio IC50” value is given as 1.1.
Turning to `C[C@H]1[C@H](OC(=O)CCC(=O)OCCCNc2nc(N)nc(N)n2)O[C@@H]2O[C@@]3(C)CC[C@H]4[C@H](C)CC[C@@H]1[C@@]24OO3`, the “Ratio IC50” value is listed as 1.2.
`CC(C)(C)OC(=O)NCCCC(N)(C(=O)OCCCNc1nc(N)nc(N)n1)C(F)F` (stereo not drawn): the “Ratio IC50” value stood at 1.
As to `CCn1cc(C(=O)O)c(=O)c2cc(F)c(N3CCN(c4nc(N)nc(N)n4)CC3)cc21`, the “Ratio IC50” value amounted to 6.3.

For the next assay, the system named is Trypanosoma brucei brucei. Put plainly: Inhibition of DNA replication in wild type Trypanosoma brucei brucei s427 assessed as kinetoplast disintegrate at IC50 after 24 hrs by DAPI staining visualized by fluorescence microscopy. It counts as functional, organism-based.
Settings: not given
Turning to `CCn1cc(C(=O)O)c(=O)c2cc(F)c(N3CCNCC3)cc21` [NORFLOXACIN], the result was Active.
`CCn1cc(C(=O)O)c(=O)c2cc(F)c(N3CCN(c4nc(N)nc(N)n4)CC3)cc21`: the outcome was inactive.

The values are drawn from ChEMBL document CHEMBL1152793, “Targeted delivery of compounds to Trypanosoma brucei using the melamine motif” (Bioorg Med Chem, 2009).
